Reference: ChEMBL document CHEMBL1135363, “N-acyl-L-phenylalanine derivatives as potent VLA-4 antagonists that mimic a cyclic peptide conformation” (Bioorg Med Chem Lett, 2002)

Experiments:
[1] = biological target: T1, Integrin alpha-4/beta-1 (Homo sapiens, UniProt P05556+P13612); test: Concentration required to inhibit the VCAM-Very late antigen4 (VLA4) interaction in Ramos cell-based assay; assay type: functional
[2] = biological target: T1, Integrin alpha-4/beta-1; test: Concentration required to inhibit the VCAM-Very late antigen4 (VLA4) interaction in ELISA cell-based assay; assay type: functional

T1 sequence (P05556 whole entry): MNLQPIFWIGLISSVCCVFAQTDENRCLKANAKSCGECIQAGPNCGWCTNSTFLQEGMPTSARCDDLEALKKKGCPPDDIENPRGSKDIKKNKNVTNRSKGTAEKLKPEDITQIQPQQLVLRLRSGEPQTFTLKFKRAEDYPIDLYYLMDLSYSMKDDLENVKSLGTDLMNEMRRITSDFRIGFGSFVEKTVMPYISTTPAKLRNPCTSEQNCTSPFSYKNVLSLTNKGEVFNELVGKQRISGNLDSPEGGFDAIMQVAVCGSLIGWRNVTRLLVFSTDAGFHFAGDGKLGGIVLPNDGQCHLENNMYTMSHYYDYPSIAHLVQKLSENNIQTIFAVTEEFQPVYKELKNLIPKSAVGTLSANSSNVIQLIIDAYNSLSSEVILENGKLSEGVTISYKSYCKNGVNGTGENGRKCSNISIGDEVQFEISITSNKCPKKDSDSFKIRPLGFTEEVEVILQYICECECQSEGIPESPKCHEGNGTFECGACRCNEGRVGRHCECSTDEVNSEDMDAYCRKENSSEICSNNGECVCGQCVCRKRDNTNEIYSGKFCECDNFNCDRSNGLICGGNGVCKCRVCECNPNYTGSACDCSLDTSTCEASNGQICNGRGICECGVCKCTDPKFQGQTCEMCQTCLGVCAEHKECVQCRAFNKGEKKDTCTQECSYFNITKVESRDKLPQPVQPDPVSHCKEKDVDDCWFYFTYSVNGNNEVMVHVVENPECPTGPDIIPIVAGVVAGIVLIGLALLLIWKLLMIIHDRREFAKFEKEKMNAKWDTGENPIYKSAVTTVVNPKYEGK
T1 sequence (P13612 whole entry): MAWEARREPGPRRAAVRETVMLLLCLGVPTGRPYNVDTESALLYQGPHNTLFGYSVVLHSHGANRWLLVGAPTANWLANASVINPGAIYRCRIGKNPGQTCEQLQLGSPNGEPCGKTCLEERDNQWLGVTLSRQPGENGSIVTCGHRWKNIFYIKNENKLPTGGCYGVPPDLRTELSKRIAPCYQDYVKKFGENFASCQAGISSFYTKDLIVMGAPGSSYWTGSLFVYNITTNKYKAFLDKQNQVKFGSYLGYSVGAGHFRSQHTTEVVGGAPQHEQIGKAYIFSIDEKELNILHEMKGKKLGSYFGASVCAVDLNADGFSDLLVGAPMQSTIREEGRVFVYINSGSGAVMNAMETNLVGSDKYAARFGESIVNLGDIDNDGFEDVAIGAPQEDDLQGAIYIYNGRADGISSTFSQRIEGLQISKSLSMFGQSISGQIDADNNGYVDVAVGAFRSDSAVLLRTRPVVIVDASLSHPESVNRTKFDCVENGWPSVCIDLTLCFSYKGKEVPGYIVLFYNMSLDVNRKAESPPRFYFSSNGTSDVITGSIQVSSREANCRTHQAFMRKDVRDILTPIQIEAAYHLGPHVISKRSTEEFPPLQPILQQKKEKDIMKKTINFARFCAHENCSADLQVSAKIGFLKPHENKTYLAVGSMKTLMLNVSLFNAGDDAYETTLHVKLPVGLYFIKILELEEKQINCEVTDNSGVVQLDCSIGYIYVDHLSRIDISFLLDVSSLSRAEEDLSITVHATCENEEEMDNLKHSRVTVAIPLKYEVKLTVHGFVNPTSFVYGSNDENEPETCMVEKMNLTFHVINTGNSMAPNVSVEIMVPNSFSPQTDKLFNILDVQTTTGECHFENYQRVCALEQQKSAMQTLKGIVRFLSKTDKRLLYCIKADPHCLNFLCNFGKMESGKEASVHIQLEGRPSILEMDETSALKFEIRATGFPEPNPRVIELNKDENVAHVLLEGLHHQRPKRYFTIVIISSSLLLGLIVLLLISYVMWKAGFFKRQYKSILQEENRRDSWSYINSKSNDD

Row | Structure (SMILES) | IC50 [1] | IC50 [2]
1 | CCN(CC)C(=O)C(Cc1ccc(O)cc1)NC(=O)c1ccc(C[C@H](NC(=O)[C@@H]2CCC(=O)N2Cc2ccccc2)C(=O)O)cc1 (stereo not given in full) | 550 nM | 5 nM
2 | O=C(O)[C@H](Cc1ccc(C(=O)N2CCN(C(=O)c3ccccc3)CC2)cc1)NC(=O)[C@@H]1CCC(=O)N1Cc1ccccc1 | 960 nM | 3 nM
3 | COc1ccc(CNC(=O)c2ccc(C[C@H](NC(=O)[C@@H]3CCC(=O)N3Cc3ccccc3)C(=O)O)cc2)cc1 | – | 61 nM
4 | CCN(CC)C(=O)C(Cc1ccc(O)cc1)NC(=O)c1cccc(C[C@H](NC(=O)[C@@H]2CCC(=O)N2Cc2ccccc2)C(=O)O)c1 (stereo not given in full) | 24400 nM | 240 nM
5 | CC(=O)c1ccccc1NC(=O)c1ccc(C[C@H](NC(=O)[C@@H]2CCC(=O)N2Cc2ccccc2)C(=O)O)cc1 | 940 nM | 4 nM
6 | O=C(O)[C@H](Cc1ccc(C(=O)N2CCN(S(=O)(=O)c3ccccc3)CC2)cc1)NC(=O)[C@@H]1CCC(=O)N1Cc1ccccc1 | 2200 nM | 11 nM
7 | CC(=O)N[C@@H](Cc1ccc(O)cc1)C(=O)Nc1ccc(C[C@H](NC(=O)[C@H]2CCC(=O)N2Cc2ccccc2)C(=O)O)cc1 | 2100 nM | 6.5 nM
8 | O=C(O)[C@H](Cc1ccc(C(=O)N2CCN(C(=O)c3ccc(O)cc3)CC2)cc1)NC(=O)[C@@H]1CCC(=O)N1Cc1ccccc1 | 1700 nM | 3 nM
9 | C[C@H](NC(=O)c1ccc(C[C@H](NC(=O)[C@@H]2CCC(=O)N2Cc2ccccc2)C(=O)O)cc1)c1ccccc1 | – | 27 nM
10 | O=C(Nc1ccccc1)c1ccc(C[C@H](NC(=O)[C@@H]2CCC(=O)N2Cc2ccccc2)C(=O)O)cc1 | – | 57 nM
11 | O=C(O)[C@H](Cc1cccc(C(=O)N2CCN(C(=O)c3ccccc3)CC2)c1)NC(=O)[C@@H]1CCC(=O)N1Cc1ccccc1 | – | 120 nM
12 | COc1ccc(C(=O)N2CCN(C(=O)c3ccc(C[C@H](NC(=O)[C@@H]4CCC(=O)N4Cc4ccccc4)C(=O)O)cc3)CC2)cc1 | 320 nM | 4 nM
13 | O=C(Nc1ccc(C[C@H](NC(=O)[C@H]2CCC(=O)N2Cc2ccccc2)C(=O)O)cc1)c1c(Cl)cccc1Cl | – | 0.37 nM
14 | CC(=O)N1CCN(C(=O)c2ccc(C[C@H](NC(=O)[C@@H]3CCC(=O)N3Cc3ccccc3)C(=O)O)cc2)CC1 | 5500 nM | 7 nM
15 | COc1ccc(S(=O)(=O)N2CCN(C(=O)c3ccc(C[C@H](NC(=O)[C@@H]4CCC(=O)N4Cc4ccccc4)C(=O)O)cc3)CC2)cc1 | 9530 nM | 12 nM
16 | O=C(O)[C@H](Cc1ccc(C(=O)N2CCN(C(=O)c3cccc(O)c3)CC2)cc1)NC(=O)[C@@H]1CCC(=O)N1Cc1ccccc1 | 470 nM | 3 nM
17 | O=C(O)[C@H](Cc1cccc(C(=O)N2CCN(S(=O)(=O)c3ccccc3)CC2)c1)NC(=O)[C@@H]1CCC(=O)N1Cc1ccccc1 | – | 60 nM
18 | COc1ccc(S(=O)(=O)N2CCN(C(=O)c3cccc(C[C@H](NC(=O)[C@@H]4CCC(=O)N4Cc4ccccc4)C(=O)O)c3)CC2)cc1 | 7800 nM | 73 nM
